Data as given in patent publication US20160158200A1, “Combinations of Hepatitis C Virus Inhibitors” (priority 2013, published 2016).

Tested on: HCV genotype-1a variant with glutamine 30 changed to glutamate in the NS5A protein
Type: cell-based
Conditions: test compound titrated with BMS-790052 fixed at 200 nM; genotype 1a Q30E replicon
How it was run: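 Synergy was assessed by combining several fixed amounts of an NS5A-targeting compound with a titration of the second compound of interest.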

CC(C)CC(=O)N1[C@@H]2C[C@@H]2C[C@H]1c1nc(-c2ccc(-c3ccc(-c4c[nH]c([C@@H]5C[C@H]6C[C@H]6N5C(=O)CC(C)C)n4)cc3)cc2)c[nH]1 [Compound P-50]
Fold-Synergistic 1a (Q30E): <10 fold

CC(C)CC(=O)N1C[C@@H](C)C[C@H]1c1nc(-c2ccc(-c3ccc(-c4c[nH]c([C@@H]5C[C@H](C)CN5C(=O)CC(C)C)n4)cc3)cc2)c[nH]1 [Compound P-51]
Fold-Synergistic 1a (Q30E): <10 fold

CC(C)C(c1ncc(-c2ccc(-c3ccc(-c4cnc(C(C(C)C)N5CCCCC5=O)[nH]4)cc3)cc2)[nH]1)N1CCCCC1=O (centres unmarked) [Compound P-52]
Fold-Synergistic 1a (Q30E): >10 fold

COC(=O)N[C@H]1CCN([C@H](c2ncc(-c3ccc(-c4ccc(-c5cnc([C@H](C(C)C)N6CC[C@H](NC(=O)OC)C6=O)[nH]5)cc4)cc3)[nH]2)C(C)C)C1=O.O=C(O)C(F)(F)F.O=C(O)C(F)(F)F [Compound P-53]
Fold-Synergistic 1a (Q30E): <10 fold

CC(C)CC(=O)N[C@@H](c1nc(-c2ccc(-c3ccc(-c4c[nH]c([C@H](NC(=O)CC(C)C)C(C)C)n4)cc3)cc2)c[nH]1)C(C)C [Compound P-54.1]
Fold-Synergistic 1a (Q30E): >100 fold

CC(C)CC(=O)N(C)C(c1ncc(-c2ccc(-c3ccc(-c4cnc(C(C(C)C)N(C)C(=O)CC(C)C)[nH]4)cc3)cc2)[nH]1)C(C)C (centres unmarked) [Compound P-54]
Fold-Synergistic 1a (Q30E): >100 fold

CC(C)[C@H](NC(=O)CC(C)(C)C)c1ncc(-c2ccc(-c3ccc(-c4cnc([C@@H](NC(=O)CC(C)(C)C)C(C)C)[nH]4)cc3)cc2)[nH]1 [Compound P-56]
Fold-Synergistic 1a (Q30E): >100 fold

CC(C)[C@H](NC(=O)CC12CC3CC(CC(C3)C1)C2)c1ncc(-c2ccc(-c3ccc(-c4cnc([C@@H](NC(=O)CC56CC7CC(CC(C7)C5)C6)C(C)C)[nH]4)cc3)cc2)[nH]1 [Compound P-57]
Fold-Synergistic 1a (Q30E): >100 fold

CC(C)[C@H](NC(=O)CC1CCOCC1)c1ncc(-c2ccc(-c3ccc(-c4cnc([C@@H](NC(=O)CC5CCOCC5)C(C)C)[nH]4)cc3)cc2)[nH]1 [Compound P-58]
Fold-Synergistic 1a (Q30E): >10 fold

CC(C)[C@H](NC(=O)C1CCOCC1)c1ncc(-c2ccc(-c3ccc(-c4cnc([C@@H](NC(=O)C5CCOCC5)C(C)C)[nH]4)cc3)cc2)[nH]1 [Compound P-59]
Fold-Synergistic 1a (Q30E): >100 fold

CC(C)[C@H](NC(=O)C12CC3CC(CC(C3)C1)C2)c1ncc(-c2ccc(-c3ccc(-c4cnc([C@@H](NC(=O)C56CC7CC(CC(C7)C5)C6)C(C)C)[nH]4)cc3)cc2)[nH]1 [Compound P-60]
Fold-Synergistic 1a (Q30E): >100 fold

CC[C@H](C(=O)N[C@H](c1ncc(-c2ccc(-c3ccc(-c4cnc([C@@H](NC(=O)[C@@H](CC)c5ccccc5)C(C)C)[nH]4)cc3)cc2)[nH]1)C(C)C)c1ccccc1 [Compound P-61]
Fold-Synergistic 1a (Q30E): >100 fold

CC(C)[C@H](NC(=O)[C@@H](C)c1ccccc1)c1ncc(-c2ccc(-c3ccc(-c4cnc([C@@H](NC(=O)[C@@H](C)c5ccccc5)C(C)C)[nH]4)cc3)cc2)[nH]1 [Compound P-62]
Fold-Synergistic 1a (Q30E): >100 fold

CC(C)[C@H](NC(=O)c1ccccc1F)c1ncc(-c2ccc(-c3ccc(-c4cnc([C@@H](NC(=O)c5ccccc5F)C(C)C)[nH]4)cc3)cc2)[nH]1 [Compound P-63]
Fold-Synergistic 1a (Q30E): >100 fold

CC(C)[C@H](NC(=O)[C@H](C)c1ccccc1)c1ncc(-c2ccc(-c3ccc(-c4cnc([C@@H](NC(=O)[C@H](C)c5ccccc5)C(C)C)[nH]4)cc3)cc2)[nH]1 [Compound P-64]
Fold-Synergistic 1a (Q30E): >100 fold

CC(C)[C@H](NC(=O)C(C)(C)Oc1ccc(Cl)cc1)c1ncc(-c2ccc(-c3ccc(-c4cnc([C@@H](NC(=O)C(C)(C)Oc5ccc(Cl)cc5)C(C)C)[nH]4)cc3)cc2)[nH]1 [Compound P-65]
Fold-Synergistic 1a (Q30E): >100 fold

CC(C)[C@H](NC(=O)[C@@H]1CCCO1)c1ncc(-c2ccc(-c3ccc(-c4cnc([C@@H](NC(=O)[C@@H]5CCCO5)C(C)C)[nH]4)cc3)cc2)[nH]1 [Compound P-66]
Fold-Synergistic 1a (Q30E): >100 fold

CC(C)[C@H](NC(=O)C(C)(C)CO)c1ncc(-c2ccc(-c3ccc(-c4cnc([C@@H](NC(=O)C(C)(C)CO)C(C)C)[nH]4)cc3)cc2)[nH]1 [Compound P-67]
Fold-Synergistic 1a (Q30E): >100 fold

CCC(C)(C)C(=O)N[C@H](c1ncc(-c2ccc(-c3ccc(-c4cnc([C@@H](NC(=O)C(C)(C)CC)C(C)C)[nH]4)cc3)cc2)[nH]1)C(C)C [Compound P-68]
Fold-Synergistic 1a (Q30E): >100 fold

COC(C)(C)C(=O)N[C@H](c1ncc(-c2ccc(-c3ccc(-c4cnc([C@@H](NC(=O)C(C)(C)OC)C(C)C)[nH]4)cc3)cc2)[nH]1)C(C)C [Compound P-69]
Fold-Synergistic 1a (Q30E): >100 fold

COCC(C)(C)C(=O)N[C@H](c1ncc(-c2ccc(-c3ccc(-c4cnc([C@@H](NC(=O)C(C)(C)COC)C(C)C)[nH]4)cc3)cc2)[nH]1)C(C)C [Compound P-70]
Fold-Synergistic 1a (Q30E): >100 fold

CC(C)[C@H](NC(=O)C(C)(C)O)c1ncc(-c2ccc(-c3ccc(-c4cnc([C@@H](NC(=O)C(C)(C)O)C(C)C)[nH]4)cc3)cc2)[nH]1 [Compound P-71]
Fold-Synergistic 1a (Q30E): >100 fold

CC(C)[C@H](NC(=O)C(C)(C)CF)c1ncc(-c2ccc(-c3ccc(-c4cnc([C@@H](NC(=O)C(C)(C)CF)C(C)C)[nH]4)cc3)cc2)[nH]1 [Compound P-72]
Fold-Synergistic 1a (Q30E): >100 fold

CC(C)[C@H](NC(=O)C1(CF)CC1)c1ncc(-c2ccc(-c3ccc(-c4cnc([C@@H](NC(=O)C5(CF)CC5)C(C)C)[nH]4)cc3)cc2)[nH]1 [Compound P-73]
Fold-Synergistic 1a (Q30E): >100 fold

COCC1(C(=O)N[C@H](c2ncc(-c3ccc(-c4ccc(-c5cnc([C@@H](NC(=O)C6(COC)CCC6)C(C)C)[nH]5)cc4)cc3)[nH]2)C(C)C)CCC1 [Compound P-74]
Fold-Synergistic 1a (Q30E): >100 fold

CO[C@@H](C(=O)N[C@H](c1ncc(-c2ccc(-c3ccc(-c4cnc([C@@H](NC(=O)[C@H](OC)c5ccccc5)C(C)C)[nH]4)cc3)cc2)[nH]1)C(C)C)c1ccccc1 [Compound P-75]
Fold-Synergistic 1a (Q30E): >100 fold

Cc1cc(CC(=O)N[C@H](c2ncc(-c3ccc(-c4ccc(-c5cnc([C@@H](NC(=O)Cc6cc(C)no6)C(C)C)[nH]5)cc4)cc3)[nH]2)C(C)C)on1 [Compound P-76]
Fold-Synergistic 1a (Q30E): >10 fold

CC(C)[C@H](NC(=O)Cc1noc2ccccc12)c1ncc(-c2ccc(-c3ccc(-c4cnc([C@@H](NC(=O)Cc5noc6ccccc56)C(C)C)[nH]4)cc3)cc2)[nH]1 [Compound P-77]
Fold-Synergistic 1a (Q30E): >100 fold

CC(C)[C@H](NC(=O)Cc1cccs1)c1ncc(-c2ccc(-c3ccc(-c4cnc([C@@H](NC(=O)Cc5cccs5)C(C)C)[nH]4)cc3)cc2)[nH]1 [Compound P-78]
Fold-Synergistic 1a (Q30E): >100 fold

CC(C)[C@H](NC(=O)C1CCC(F)(F)CC1)c1ncc(-c2ccc(-c3ccc(-c4cnc([C@@H](NC(=O)C5CCC(F)(F)CC5)C(C)C)[nH]4)cc3)cc2)[nH]1 [Compound P-79]
Fold-Synergistic 1a (Q30E): >100 fold

CC(C)[C@H](NC(=O)C1(C(F)(F)F)CCCC1)c1ncc(-c2ccc(-c3ccc(-c4cnc([C@@H](NC(=O)C5(C(F)(F)F)CCCC5)C(C)C)[nH]4)cc3)cc2)[nH]1 [Compound P-80]
Fold-Synergistic 1a (Q30E): >100 fold

CC(C)[C@H](NC(=O)CCC(C)(C)C)c1ncc(-c2ccc(-c3ccc(-c4cnc([C@@H](NC(=O)CCC(C)(C)C)C(C)C)[nH]4)cc3)cc2)[nH]1 [Compound P-81]
Fold-Synergistic 1a (Q30E): >100 fold

CC(C)[C@H](NC(=O)C1(c2ccc(F)cc2)CCC1)c1ncc(-c2ccc(-c3ccc(-c4cnc([C@@H](NC(=O)C5(c6ccc(F)cc6)CCC5)C(C)C)[nH]4)cc3)cc2)[nH]1 [Compound P-82]
Fold-Synergistic 1a (Q30E): >100 fold

CC(C)[C@H](NC(=O)C1CC(F)(F)C1)c1ncc(-c2ccc(-c3ccc(-c4cnc([C@@H](NC(=O)C5CC(F)(F)C5)C(C)C)[nH]4)cc3)cc2)[nH]1 [Compound P-83]
Fold-Synergistic 1a (Q30E): >100 fold

CC(C)[C@H](NC(=O)C1(C)COC1)c1ncc(-c2ccc(-c3ccc(-c4cnc([C@@H](NC(=O)C5(C)COC5)C(C)C)[nH]4)cc3)cc2)[nH]1 [Compound P-84]
Fold-Synergistic 1a (Q30E): >100 fold

CO[C@H](C(=O)N[C@H](c1ncc(-c2ccc(-c3ccc(-c4cnc([C@@H](NC(=O)[C@@H](OC)c5ccccc5)C(C)C)[nH]4)cc3)cc2)[nH]1)C(C)C)c1ccccc1 [Compound P-85]
Fold-Synergistic 1a (Q30E): >100 fold

CC(C)[C@H](NC(=O)C(C)(C)C(F)(F)F)c1ncc(-c2ccc(-c3ccc(-c4cnc([C@@H](NC(=O)C(C)(C)C(F)(F)F)C(C)C)[nH]4)cc3)cc2)[nH]1 [Compound P-87]
Fold-Synergistic 1a (Q30E): >100 fold

CC(C)[C@H](NC(=O)C1(C(F)(F)F)CC1)c1ncc(-c2ccc(-c3ccc(-c4cnc([C@@H](NC(=O)C5(C(F)(F)F)CC5)C(C)C)[nH]4)cc3)cc2)[nH]1 [Compound P-88]
Fold-Synergistic 1a (Q30E): >100 fold

CC(C)[C@H](NC(=O)c1cc(Cl)cs1)c1ncc(-c2ccc(-c3ccc(-c4cnc([C@@H](NC(=O)c5cc(Cl)cs5)C(C)C)[nH]4)cc3)cc2)[nH]1 [Compound P-90]
Fold-Synergistic 1a (Q30E): >100 fold

CC(C)[C@H](NC(=O)c1ccc(Cl)s1)c1ncc(-c2ccc(-c3ccc(-c4cnc([C@@H](NC(=O)c5ccc(Cl)s5)C(C)C)[nH]4)cc3)cc2)[nH]1 [Compound P-91]
Fold-Synergistic 1a (Q30E): >100 fold

CC(C)[C@H](NC(=O)c1cocn1)c1ncc(-c2ccc(-c3ccc(-c4cnc([C@@H](NC(=O)c5cocn5)C(C)C)[nH]4)cc3)cc2)[nH]1 [Compound P-92]
Fold-Synergistic 1a (Q30E): >10 fold

Cc1ncoc1C(=O)N[C@H](c1ncc(-c2ccc(-c3ccc(-c4cnc([C@@H](NC(=O)c5ocnc5C)C(C)C)[nH]4)cc3)cc2)[nH]1)C(C)C [Compound P-93]
Fold-Synergistic 1a (Q30E): >100 fold

CC(C)[C@H](NC(=O)c1cnco1)c1ncc(-c2ccc(-c3ccc(-c4cnc([C@@H](NC(=O)c5cnco5)C(C)C)[nH]4)cc3)cc2)[nH]1 [Compound P-94]
Fold-Synergistic 1a (Q30E): >10 fold

CC(C)[C@H](NC(=O)Cc1ncccn1)c1ncc(-c2ccc(-c3ccc(-c4cnc([C@@H](NC(=O)Cc5ncccn5)C(C)C)[nH]4)cc3)cc2)[nH]1 [Compound P-95]
Fold-Synergistic 1a (Q30E): >10 fold
